Assay results as given in patent US20240287065A1, “COMPOUND AS CDK KINASE INHIBITOR AND USE THEREOF” (TYK MEDICINES (ZHENGZHOU) , INC., priority 2021, published 2024).
Read-outs that look alike come from different tables or passages of the source.

Legend:
MCF-7-Palbo-R cells = assay: MCF-7-Palbo-R cell antiproliferative assay (BrdU ELISA); type: cell-based; details: for IC50: 72 hours, BrdU; for Bottom(%): bottom of inhibition curve; for Top(%): top of inhibition curve
Procedure: 1. Experimental Materials • MCF-7/palbo-R • EMEM medium (ATCC, 30-2003); DMEM/F12 medium (Gibco-1 1330-032) • Fetal bovine serum (cellmax-SA21 1.02) • DMSO (SIGMA, D2650) • BrdU ELISA cell proliferation assay kit (Roche, 11647229001) • ELISA (e.g. MD-SpectraMax ID5 or EnVision)
2. Experimental protocol • 1. Cell spreading • 1) Cells were counted, the concentration of cell suspension was adjusted • 2) The MCF7/Palbo-R cell suspension was seeded in 96-well plates at […] volume to make the number of cells per well is 4000-5000; • 3) Blank control group was added with 90 μl of culture medium; • 2. […] A 3-fold serial gradient dilution was performed with 0.1% DMSO medium for a total of 9 concentrations, and the concentrations of the compounds after dilution were as follows: • 10000 nM, 3333.33 nM, 1111.11 nM, 370.34 nM, 123.45 nM, 41.15 nM, 13.72 nM, 4.57 nM, and 1.52 nM. • b) After 72 hours of compound treatment. • 1) A 10 mM of Brdu stock solution was diluted with RPMI medium and added to a 96-well plate at 20 uL/well and shaken at 350 rpm for 10 minutes. • 2) The 96 well plate was placed back into the incubator for 1 or 2 hours. • 3) After the medium was removed from the 96-well plate, 200 ul/well of Fixation/Denaturation solution was added and incubated for 30 minutes at room temperature. • 4) The fixation solution was removed and 100 ul of peroxidase-coupled anti-Brdu antibody solution (antibody dilution prepared at 1:100 dilution) was added, • and incubated at 350 rpm for 1 hour at room temperature. • 6) The 96-well plate was washed three times with 300 ul/well of PBS. • 8) 100ul of peroxidase substrate solution was added and shaken at 350 rpm for about 10-20 minutes at room temperature, • until the DMSO-treated cell control wells turn a medium blue color. If a color is too dark, it will cause the absorbance value to out of the reading range. • 9) The reaction was terminated by the addition of 25 ul of 1 M sulfuric acid. Shake to ensure uniform color. • 10) The absorbance at 450 nm was recorded. • 3. Data analysis • The inhibition rate is calculated using the following equation:
IR (%)=(1−(RLU compound−RLU blank)/(RLU control−RLU blank))*100%.

xMCF-7/Palbo-R cells = assay: xMCF-7/Palbo-R xenograft tumor model; type: in vivo; details: oral tube feeding twice daily for 20 days, Balb/c nude female mice
Procedure: To establish a xenograft tumor model, 1×10^7 xMCF-7/Palbo-R cells were suspended in 0.2 mL of a mixture of Matrigel and […] (1:1) and injected subcutaneously into 6-8 week-old Balb/c nube female mice. Tumor growth was observed periodically, and the volume (volume=½×(length×width 2)) was measured with a vernier caliper. When the tumors grew to an average volume of 100˜150 mm3, the drug was administered to mice (12 days after inoculation) in random groups according to the tumor size and their body weights. […] The drugs were administered by oral tube feeding twice daily for 20 days. Tumor volume and animal weight were measured twice a week and continued until the end of the experiment. Dosing day was defined as day 0. Measurement time points were day 0, day 3, day 7, day 10, day 14, day 17 and day 20. All mice were euthanized by cervical dislocation. At the end of the experiment, tumors were collected and weighed to calculate TGI values (see Table 4).

OVCAR-3 cells = assay: OVCAR-3 xenograft tumor model; type: in vivo; details: 30 mg/kg, oral tube feeding twice daily for 21 days, BALB/c nude female mice
Procedure: OVCAR-3 cells were cultured in RPMI1640 culture medium containing 20% fetal bovine serum and 10 μg/mL Insalin. Cells in the exponential growth phase were collected, and the cells were resuspended in the mixed solution of PBS and Matrigel in a ratio of 1:1 to a suitable concentration for subcutaneous tumor inoculation in nude mice.
To establish a xenograft tumor model, 1×10^7 OVCAR-3 cells were suspended in 0.2 mL of a mixture of PBS and Matrigel (1:1) and injected subcutaneously into 6-8-week-old BALB/c nube female mice on the right back. Tumor growth was observed periodically, and the volume (volume=½[…](length×width 2)) was measured with a vernier caliper. When the tumors grew to an average volume of 100˜150 mm^3, the drug was administered to mice (27 days after inoculation) in random groups according to the tumor size and their body weights. […] Tumor volume and animal weight were measured twice a week and continued until the end of the experiment. Dosing day was defined as day 0. Measurement time points were day 0, day 3, day 7, day 10, day 14, day 17 and day 21. All mice were euthanized by cervical dislocation. At the end of the experiment, tumors were collected and weighed to calculate TGI values (see Table 5).

MV4-11 cells = assay: MV4-11 xenograft tumor model; type: in vivo; details: oral tube feeding twice a day for 15 days, NOD/SCID mice
Procedure: MV-4-11 cells were cultured in IMEM culture medium containing 10% fetal bovine serum. Cells in the exponential growth phase were collected, and the cells were resuspended in PBS to a suitable concentration for subcutaneous tumor inoculation in nude mice.
To establish a xenograft tumor model, 5×10^6 MV4-11 cells were suspended in 0.1 mL of a 1:1 mixture of PBS and Matrigel and injected subcutaneously into the right dorsal side of 6-8-week-old NOD/SCID mice. Tumor growth was observed periodically, and the volume (volume=½×(length×width^2)) was measured with a vernier caliper. When the tumors grew to an average volume of 100˜150 mm^3, the drug was administered to mice (12 days after inoculation) in random groups according to the tumor size and their body weights. […] Among them, the mice in the Vehicle, 10 mg/kg TY-3301, 10 mg/kg C3, and 20 mg/kg C3 groups were administered twice a day by oral tube feeding for 15 days, and the mice in the 20 mg/kg TY-3300 group were administered once a day by oral tube feeding for 15 days. Tumor volume and animal weight were measured twice a week and continued until the end of the experiment. Dosing day was defined as day 0. Measurement time points were day 0, day 3, day 7, day 10, day 14, and day 15. All mice were euthanized by cervical dislocation. At the end of the experiment, tumors were collected and weighed to calculate TGI values (see Table 6).

| Structure (SMILES) | IC50 (MCF-7-Palbo-R cells; read-out: AbsIC50) | IC50 (MCF-7-Palbo-R cells; read-out: ReIC50) | Bottom(%) (MCF-7-Palbo-R cells) | Top(%) (MCF-7-Palbo-R cells) | TGI (xMCF-7/Palbo-R cells; 10 mg/kg) | TGI (xMCF-7/Palbo-R cells; 20 mg/kg) | TGI (OVCAR-3 cells) | TGI (MV4-11 cells; 10 mg/kg) | TGI (MV4-11 cells; 20 mg/kg) |
| --- | --- | --- | --- | --- | --- | --- | --- | --- | --- |
| C[C@@]1(O)CCC[C@H]1n1c(=O)c(OC(F)F)cc2cnc(NC3CCN(S(C)(=O)=O)CC3)nc21 [Example 3] | 0.036 µM | 0.038 µM | 6.317% | 98.857% | 64.4% | 64.6% | 71.3% | 69.5% | 95.3% |
| C[C@@]1(O)CCC[C@H]1n1c(=O)c(C(F)F)cc2cnc(NC3CCN(S(C)(=O)=O)CC3)nc21 [PF-06873600, reference compound] | 0.054 µM | 0.049 µM | 7.487% | 98.896% | 36.2% | – | 52.6% | 60.9% | – |
